Common to all, as to format: in vivo
Experiment [1] has as its system Stellaria. As to the kind of experiment: Post-emergence herbicidal action, Stellaria. Set-up: key: 1=total damage; 9=no action. Conditions: post-emergence (2- to 3-leaf stage), 1000 g a.i/ha, 2 to 3 weeks, scale of nine ratings (1=total damage, 9=no action). How it is done: (§1) Monocotyledonous and dicotyledonous test plants are sown in standard soil in pots, and at the 2- to 3-leaf stage are sprayed with an aqueous suspension of the test compounds (prepared from a wettable powder (Example F3, b) according to WO 97/34485) or with an emulsion of the test compounds (prepared from an emulsifiable concentrate (Example F1, c) according to WO 97/34485) at an optimum rate of application of 500 litres of water/ha). The test plants are then grown on in the greenhouse under optimum conditions. After a test duration of 2 to 3 weeks, the test is evaluated in accordance with a scale of nine ratings (1=total damage, 9=no action). Ratings of from 1 to 4 (especially from 1 to 3) indicate good to very good herbicidal action. Test plants: Panicum, Euphorbia, Sida, Amaranthus, Chenopodium, Stellaria, Veronica.

For experiment [2], the system named is Chenopodium. Briefly: Post-emergence herbicidal action, Chenopodium. On the set-up: key: 1=total damage; 9=no action. Conditions: post-emergence (2- to 3-leaf stage), 1000 g a.i/ha, 2 to 3 weeks, scale of nine ratings (1=total damage, 9=no action). How it is done:
as §1

Experiment [3] relates to Amaranthus. As to the kind of experiment: Post-emergence herbicidal action, Amaranthus. The following applies: post-emergence (2- to 3-leaf stage), 1000 g a.i/ha, 2 to 3 weeks, scale of nine ratings (1=total damage, 9=no action). How it is done:
as §1

Experiment [4] concerns Setaria. As to the kind of experiment: Pre-emergence herbicidal action, Setaria. On the set-up: key: 1=total damage; 9=no action. The following applies: 1000 g a.i./ha, 4 weeks, scale of nine ratings (1=total damage, 9=no action). An excerpt:
(§2) Monocotyledonous and dicotyledonous test plants are sown in standard soil in pots. Immediately after sowing, an aqueous suspension of the test compounds (prepared from a wettable powder (Example F3, b) according to WO 97/34485) or an emulsion of the test compounds (prepared from an emulsifiable concentrate (Example F1, c) according to WO 97/34485) is applied by spraying at an optimum rate of application (500 litres of water/ha). The test plants are then cultivated in a greenhouse under optimum conditions. After a test duration of 4 weeks, the test is evaluated in accordance with a scale of nine ratings (1=total damage, 9=no action). Ratings of from 1 to 4 (especially from 1 to 3) indicate good to very good herbicidal action. Test plants: Setaria, Panicum, Digitaria, Amaranthus, Stellaria, Veronica.

The subject of experiment [5] is Veronica. As to the kind of experiment: Pre-emergence herbicidal action, Veronica. The following applies: 1000 g a.i./ha, 4 weeks, scale of nine ratings (1=total damage, 9=no action).
Description: as §2

Experiment [6] concerns Stellaria. Briefly: Pre-emergence herbicidal action, Stellaria. The following applies: 1000 g a.i./ha, 4 weeks, scale of nine ratings (1=total damage, 9=no action). On the set-up: key: 1=total damage; 9=no action.
Description: as §2

For experiment [7], the system named is Panicum. Briefly: Pre-emergence herbicidal action, Panicum. The following applies: 1000 g a.i./ha, 4 weeks, scale of nine ratings (1=total damage, 9=no action).
Description: as §2

Experiment [8] deals with Panicum. As to the kind of experiment: Post-emergence herbicidal action, Panicum. Conditions: post-emergence (2- to 3-leaf stage), 1000 g a.i/ha, 2 to 3 weeks, scale of nine ratings (1=total damage, 9=no action). How it is done:
as §1

In experiment [9] the test system is Euphorbia. As to the kind of experiment: Post-emergence herbicidal action, Euphorbia. Set-up: key: 1=total damage; 9=no action. Conditions: post-emergence (2- to 3-leaf stage), 1000 g a.i/ha, 2 to 3 weeks, scale of nine ratings (1=total damage, 9=no action). How it is done:
as §1

Experiment [10] has as its system Sida. As to the kind of experiment: Post-emergence herbicidal action, Sida. The following applies: post-emergence (2- to 3-leaf stage), 1000 g a.i/ha, 2 to 3 weeks, scale of nine ratings (1=total damage, 9=no action). How it is done:
as §1

In experiment [11] the test system is Amaranthus. Briefly: Pre-emergence herbicidal action, Amaranthus. On the set-up: key: 1=total damage; 9=no action. The following applies: 1000 g a.i./ha, 4 weeks, scale of nine ratings (1=total damage, 9=no action).
Description: as §2

The test system of experiment [12] is Veronica. Briefly: Post-emergence herbicidal action, Veronica. The following applies: post-emergence (2- to 3-leaf stage), 1000 g a.i/ha, 2 to 3 weeks, scale of nine ratings (1=total damage, 9=no action). How it is done: as §1
Experiment [13] relates to Digitaria. As to the kind of experiment: Pre-emergence herbicidal action, Digitaria. On the set-up: key: 1=total damage; 9=no action. The following applies: 1000 g a.i./ha, 4 weeks, scale of nine ratings (1=total damage, 9=no action).
Description: as §2

We go through 1 molecule from patent US20040102325A1, “Phenylpropynyloxypyridine herbicides” (priority 2000, published 2004).

Regarding `CSc1cccnc1OCC#Cc1cccc(CC#N)c1` [1.047], the “Stellaria, herbicidal action rating” value in experiment [1] and in experiment [6] was 1 each time. In addition, the “Chenopodium, herbicidal action rating” value in experiment [2] is 1. Besides, the “Amaranthus, herbicidal action rating” value was determined as 2 in [3] and 1 in experiment [11]. Moreover, in experiment [4], the “Setaria, herbicidal action rating” value is 1. Besides, the “Veronica, herbicidal action rating” value in [5] came to 4; in experiment [12], 3. Moreover, the “Panicum, herbicidal action rating” value is reported as 2 in experiment [7] and 4 in experiment [8]. The “Euphorbia, herbicidal action rating” value in experiment [9] is given as 1. Moreover, in [10], the “Sida, herbicidal action rating” value was 3. In addition, the “Digitaria, herbicidal action rating” value in experiment [13] is recorded as 1.
